According to patent US20240293400A1, “NOVEL AZAINDOLE DERIVATIVES AS ANTIVIRAL AGENTS” (Centre National de la Recherche Scientifique, priority 2021, published 2024):

Columns and labels:
[1] = system: SARS-COV-2 virus, BetaCoV/France/IDF0371/2020; experiment: Anti-SARS-COV-2 activity in VeroE6 cells; type: cell-based; details: MOI=0.01, 24 hours, qRT-PCR; for infection of the VeroE6 cells by the SARS-COV-2 virus: 1.25 μM; for IC50: Vero E6 cells
Method: FIG. 7: Anti-SARS-COV-2 activity of compounds 1, 2, 3, 10 and 14 determined in the VeroE6 line. The cells were preincubated for 1 hour with compounds at a concentration of 1.25 μM, then infected with the viral strain BetaCoV/France/IDF0371/2020 (MOI=0.01). The cells were kept in culture for 24 hours in the presence of the compound. The residual viral replication is measured by quantification of the viral RNA in the cell culture by qRT-PCR. The control condition is obtained by incubation of cells in the presence of the dilution solvent DMSO (0). The values are averages of triplicates+standard deviation.
(§1) The inhibitory activity of the compounds of the invention on the infection by SARS-COV-2 was evaluated in vitro by infection of three relevant lines for the study of this pathogen: the green monkey line VeroE6 (immortalized kidney epithelium, ATCC #CRL-1586), the A549-ACE2 line produced by transfection of the ACE2 receptor in the A549 line (pulmonary epithelial carcinoma; ATCC #CCL-185), commercial primary bronchial epithelium cells (Mucilair Epithelix).
(§2) The infection tests are carried out by preincubating 4×10^4 VeroE6 or A549-ACE2 cells, cultivated in a 96-well plate, with the indicated concentrations of compounds for 1 hour. The cells are cultivated in a 5% CO2 atmosphere in a Dulbecco's modified Eagle's medium (DMEM) comprising 2% calf serum and 1% penicillin/streptomycin. The cells were then exposed to the SARS-COV-2 virus, BetaCoV/France/IDF0371/2020 (MOI=0.01) for 2 hours in the presence of the compounds before elimination of the innoculum, washing and culturing the cells in the presence of the compounds. 24 h after the viral challenge, the infection is quantified by amplification of the viral RNA by qRT-PCR using the Luna Universal One-Step RT-PCR kit. The values (DCT) are normalized by the GAPDH mRNA. The values represented are averages of triplicates+standard deviation. The control conditions were carried out by incubating the cells in the presence of DMSO, the solvent used for the solubilization of the compounds tested. The volumes of DMSO used under these conditions correspond to the volumes provided by the compounds under the test conditions.
IC50 compounds 1, 2 and 3 were determined on the VeroE6 and A549-ACE2 cells using the software Graphpad Prism.

[2] = system: ZIKV BeH8 strain; experiment: Antiviral activity against the Zika virus in HeLa cells; type: cell-based; details: for concentration at which infection of the Hela cells by the strain ZIKV BeH-8 is prevented: 24 h, qRT-PCR; for concentration at which infection of the Hela cells by the strain ZIKV BeH-8 is prevented / IC50: HeLa cells; for IC50: BeH-8 strain, MOI=0.1, 24 h; for active on infectious model ZIKV: summary table
[3] = target: SYK (Homo sapiens (Human), UniProt P43405); experiment: Kinase panel Z'-LYTE/Adapta SelectScreen; type: biochemical; details: 100 nM in 1% DMSO
Method: (§3) The inhibitory activity of the compounds on a panel of kinases including, inter alia, AXL and FLT3 was evaluated by Thermo Fisher Scientific using Z′-LYTE® and Adapta® Select Screen technology.
(§4) The fluorescence-based biochemical test uses coupled enzymes and is based on the difference in sensitivity of the phosphorylated and non-phosphorylated peptides to proteolytic cleavage. The peptide substrate is labeled with 2 fluorophores—one at each end—allowing fluorescence transfer (FRET).
(§5) Compounds 1, 2 and 3 are tested in wells at the final concentration of 100 nM in 1% DMSO.

[4] = target: JAK3 (Homo sapiens (Human), UniProt P52333); experiment: Kinase panel Z'-LYTE/Adapta SelectScreen; type: biochemical; details: 100 nM in 1% DMSO
Chain of JAK3 (P52333 whole entry): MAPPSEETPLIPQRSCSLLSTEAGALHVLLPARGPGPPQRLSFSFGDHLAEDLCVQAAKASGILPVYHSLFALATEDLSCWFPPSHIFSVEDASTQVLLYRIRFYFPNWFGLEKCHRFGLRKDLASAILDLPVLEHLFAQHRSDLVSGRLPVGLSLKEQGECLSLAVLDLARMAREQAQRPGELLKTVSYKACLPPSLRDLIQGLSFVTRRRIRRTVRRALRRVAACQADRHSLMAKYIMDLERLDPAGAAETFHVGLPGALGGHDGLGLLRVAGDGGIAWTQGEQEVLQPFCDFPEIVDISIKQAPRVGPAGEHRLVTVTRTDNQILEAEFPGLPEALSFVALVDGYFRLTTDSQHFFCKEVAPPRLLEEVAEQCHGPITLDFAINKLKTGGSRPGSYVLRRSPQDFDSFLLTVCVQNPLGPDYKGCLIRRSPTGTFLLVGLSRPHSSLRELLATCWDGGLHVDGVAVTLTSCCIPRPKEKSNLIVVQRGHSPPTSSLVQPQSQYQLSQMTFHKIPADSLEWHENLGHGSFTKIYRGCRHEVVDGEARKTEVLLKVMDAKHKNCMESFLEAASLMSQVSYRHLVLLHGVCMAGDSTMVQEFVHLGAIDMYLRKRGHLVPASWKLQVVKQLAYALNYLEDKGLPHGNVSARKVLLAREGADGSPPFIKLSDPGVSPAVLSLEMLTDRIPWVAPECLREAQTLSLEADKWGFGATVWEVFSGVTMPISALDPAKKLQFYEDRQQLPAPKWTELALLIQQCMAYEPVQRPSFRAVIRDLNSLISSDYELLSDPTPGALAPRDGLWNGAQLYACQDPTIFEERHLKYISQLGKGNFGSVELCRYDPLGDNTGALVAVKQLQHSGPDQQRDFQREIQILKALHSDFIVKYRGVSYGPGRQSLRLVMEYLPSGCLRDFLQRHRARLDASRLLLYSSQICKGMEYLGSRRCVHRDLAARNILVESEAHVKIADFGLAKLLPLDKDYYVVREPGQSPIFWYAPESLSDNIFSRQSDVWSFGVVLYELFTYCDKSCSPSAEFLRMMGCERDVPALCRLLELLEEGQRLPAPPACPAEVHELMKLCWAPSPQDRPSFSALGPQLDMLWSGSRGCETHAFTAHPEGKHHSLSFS
Method: as §3, §4, §5

[5] = target: KDR (VEGFR2) (Homo sapiens (Human), UniProt P35968); experiment: Kinase panel Z'-LYTE/Adapta SelectScreen; type: biochemical; details: 100 nM in 1% DMSO
Method: as §3, §4, §5

[6] = target: CSK (Homo sapiens (Human), UniProt P41240); experiment: Kinase panel Z'-LYTE/Adapta SelectScreen; type: biochemical; details: 100 nM in 1% DMSO
Chain of CSK (P41240 whole entry): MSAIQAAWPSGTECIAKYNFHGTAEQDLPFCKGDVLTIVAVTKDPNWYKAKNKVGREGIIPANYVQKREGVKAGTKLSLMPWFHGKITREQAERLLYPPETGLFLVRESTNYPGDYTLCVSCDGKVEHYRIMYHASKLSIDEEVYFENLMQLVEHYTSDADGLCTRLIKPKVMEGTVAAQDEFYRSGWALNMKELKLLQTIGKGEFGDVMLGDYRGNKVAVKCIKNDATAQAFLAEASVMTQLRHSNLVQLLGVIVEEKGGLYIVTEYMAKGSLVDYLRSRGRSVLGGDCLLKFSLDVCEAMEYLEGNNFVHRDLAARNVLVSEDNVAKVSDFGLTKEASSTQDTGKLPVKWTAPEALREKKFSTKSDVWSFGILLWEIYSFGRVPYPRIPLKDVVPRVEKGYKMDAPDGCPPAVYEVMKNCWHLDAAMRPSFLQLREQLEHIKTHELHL
Method: as §3, §4, §5

[7] = target: MERTK (cMER) (Homo sapiens (Human), UniProt Q12866); experiment: Kinase panel Z'-LYTE/Adapta SelectScreen; type: biochemical; details: 100 nM in 1% DMSO
Chain of MERTK (cMER) (Q12866 21-999): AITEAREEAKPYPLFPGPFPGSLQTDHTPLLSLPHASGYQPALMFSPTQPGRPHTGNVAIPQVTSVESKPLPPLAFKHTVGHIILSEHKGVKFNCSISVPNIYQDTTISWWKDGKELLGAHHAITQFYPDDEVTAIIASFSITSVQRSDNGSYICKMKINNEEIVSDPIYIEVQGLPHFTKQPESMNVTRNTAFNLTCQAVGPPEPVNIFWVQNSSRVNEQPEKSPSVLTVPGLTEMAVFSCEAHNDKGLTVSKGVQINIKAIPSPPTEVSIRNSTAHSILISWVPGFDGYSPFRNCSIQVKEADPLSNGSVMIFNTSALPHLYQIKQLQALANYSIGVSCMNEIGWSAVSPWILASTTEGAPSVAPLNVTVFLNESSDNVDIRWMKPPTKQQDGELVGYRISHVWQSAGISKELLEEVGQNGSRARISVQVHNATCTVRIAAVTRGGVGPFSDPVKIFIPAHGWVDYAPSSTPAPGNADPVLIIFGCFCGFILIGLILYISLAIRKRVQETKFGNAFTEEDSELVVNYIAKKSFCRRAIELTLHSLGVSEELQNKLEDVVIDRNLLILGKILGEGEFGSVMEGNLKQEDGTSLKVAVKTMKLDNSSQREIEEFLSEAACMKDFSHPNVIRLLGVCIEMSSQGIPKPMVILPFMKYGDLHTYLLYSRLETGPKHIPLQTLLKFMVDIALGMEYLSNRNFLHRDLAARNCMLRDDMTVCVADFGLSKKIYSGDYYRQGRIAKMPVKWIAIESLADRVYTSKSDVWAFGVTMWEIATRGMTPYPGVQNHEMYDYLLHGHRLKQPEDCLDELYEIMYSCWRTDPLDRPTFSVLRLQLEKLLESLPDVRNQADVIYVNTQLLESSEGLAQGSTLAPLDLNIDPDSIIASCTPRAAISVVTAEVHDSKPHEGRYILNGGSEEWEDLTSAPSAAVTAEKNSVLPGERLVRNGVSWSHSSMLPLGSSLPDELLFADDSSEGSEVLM
Method: as §3, §4, §5

[8] = target: RPS6KA1 (RSX1) (Homo sapiens (Human), UniProt Q15418); experiment: Kinase panel Z'-LYTE/Adapta SelectScreen; type: biochemical; details: 100 nM in 1% DMSO
Method: as §3, §4, §5

[9] = target: JAK2 (Homo sapiens (Human), UniProt O60674); experiment: Kinase panel Z'-LYTE/Adapta SelectScreen; type: biochemical; details: 100 nM in 1% DMSO
Method: as §3, §4, §5

[10] = target: FLT3 (Homo sapiens (Human), UniProt P36888); experiment: IC50 determination on kinase FLT3 (SelectScreen); type: biochemical; details: 10 concentrations between 100 nM and 0.00495 nM
Chain of FLT3 (P36888 27-993): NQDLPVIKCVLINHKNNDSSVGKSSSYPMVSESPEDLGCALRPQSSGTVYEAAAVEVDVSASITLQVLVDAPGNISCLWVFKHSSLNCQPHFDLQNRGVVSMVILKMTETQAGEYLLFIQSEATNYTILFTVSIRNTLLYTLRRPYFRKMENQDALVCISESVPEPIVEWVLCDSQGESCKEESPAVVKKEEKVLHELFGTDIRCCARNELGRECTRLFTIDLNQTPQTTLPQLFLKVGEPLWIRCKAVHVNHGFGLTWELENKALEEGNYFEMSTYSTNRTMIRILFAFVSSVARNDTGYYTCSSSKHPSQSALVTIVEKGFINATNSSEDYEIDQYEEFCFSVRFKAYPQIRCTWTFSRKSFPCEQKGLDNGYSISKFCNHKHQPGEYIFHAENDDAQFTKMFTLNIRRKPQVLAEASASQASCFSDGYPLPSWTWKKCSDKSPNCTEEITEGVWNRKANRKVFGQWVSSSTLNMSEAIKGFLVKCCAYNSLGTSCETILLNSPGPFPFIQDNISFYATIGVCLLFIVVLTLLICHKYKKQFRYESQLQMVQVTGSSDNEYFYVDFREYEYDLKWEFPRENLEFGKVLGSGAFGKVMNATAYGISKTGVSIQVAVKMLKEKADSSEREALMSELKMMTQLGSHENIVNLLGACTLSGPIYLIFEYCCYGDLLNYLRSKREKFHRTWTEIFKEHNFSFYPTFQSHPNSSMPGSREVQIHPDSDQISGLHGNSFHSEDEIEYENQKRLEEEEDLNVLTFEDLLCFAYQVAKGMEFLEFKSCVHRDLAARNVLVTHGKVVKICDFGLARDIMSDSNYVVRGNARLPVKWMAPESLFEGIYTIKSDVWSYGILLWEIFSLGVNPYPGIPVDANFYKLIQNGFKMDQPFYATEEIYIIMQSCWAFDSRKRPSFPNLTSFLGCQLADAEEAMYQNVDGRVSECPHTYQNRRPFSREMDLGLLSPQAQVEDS
Method: FIG. 2: Determination of the IC50 of compounds 1, 2 and 3 with respect to the inhibition of the kinase Axl and of the kinase FLT3. 10 concentrations of the compound were prepared by serial dilutions. The compounds are screened in DMSO at 1% final. The kinases were diluted in a concentrated concentration twice in kinase buffer. All the ATP solutions were diluted in a 4-fold concentrated working concentration (50 mM HEPES pH 7.5, 0.01% BRIJ-35, 10 mM MgCl2, 1 mM EGTA). Each compound was incubated at 10 concentrations between 100 nM and 0.00495 nM in order to calculate the IC50. The IC50 are indicated: a) results of compound 1; b) results of compound 2; c) results of compound 3.
as §3, §4
To calculate the IC50 inhibition of Axl and FLT3 by the compounds of the invention, 10 concentrations of each compound 1, 2 and 3 were prepared by 1/3 serial dilutions from the starting concentration. The Axl or FLT3 kinases were diluted at a two-fold concentration in kinase buffer. All the ATP solutions are diluted in a 4-fold working concentration (50 mM HEPES PH 7.5, 0.01% BRIJ-35, 10 mM MgCl2, 1 mM EGTA).
Each compound is incubated at 10 concentrations between 100 nM and 0.00495 nM in order to calculate the IC50.

[11] = system: SARS-COV-2; experiment: Summary of activity on the SARS-COV-2 infectious models; type: cell-based; details: summary table
Method: as §1, §2

[12] = target: Axl (Homo sapiens (Human), UniProt P30530); experiment: Inhibition of the phosphorylation of the kinase Axl in cellulo (immunoblot, Y779); type: cell-based; details: A549 cells, 2.5 μM compound 1 hour, 1 mM pervanadate 5 min
Chain of Axl (P30530 26-894): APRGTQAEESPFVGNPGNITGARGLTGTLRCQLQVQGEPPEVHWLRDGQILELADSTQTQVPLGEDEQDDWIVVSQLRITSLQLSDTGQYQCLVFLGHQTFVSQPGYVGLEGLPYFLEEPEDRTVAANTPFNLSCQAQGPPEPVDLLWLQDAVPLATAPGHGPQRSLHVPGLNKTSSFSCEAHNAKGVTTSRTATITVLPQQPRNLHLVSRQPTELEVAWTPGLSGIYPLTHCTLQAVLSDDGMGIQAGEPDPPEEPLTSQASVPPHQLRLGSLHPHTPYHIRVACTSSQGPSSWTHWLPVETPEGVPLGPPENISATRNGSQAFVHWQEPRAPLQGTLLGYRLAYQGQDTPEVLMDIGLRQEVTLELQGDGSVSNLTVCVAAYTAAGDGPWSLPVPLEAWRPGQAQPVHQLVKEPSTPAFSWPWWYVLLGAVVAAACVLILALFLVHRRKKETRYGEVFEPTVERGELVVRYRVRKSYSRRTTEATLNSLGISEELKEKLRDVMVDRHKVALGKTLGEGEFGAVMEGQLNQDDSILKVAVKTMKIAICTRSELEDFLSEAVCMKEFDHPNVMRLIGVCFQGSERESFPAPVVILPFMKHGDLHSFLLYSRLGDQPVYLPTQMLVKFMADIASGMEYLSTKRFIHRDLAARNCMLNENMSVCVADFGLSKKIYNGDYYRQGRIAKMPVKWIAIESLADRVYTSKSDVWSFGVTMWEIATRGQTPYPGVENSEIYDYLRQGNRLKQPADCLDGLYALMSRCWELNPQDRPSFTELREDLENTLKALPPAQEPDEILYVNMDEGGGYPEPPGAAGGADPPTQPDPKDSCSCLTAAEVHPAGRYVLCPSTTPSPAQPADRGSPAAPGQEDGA
Method: FIG. 1: […] The A549 cells were preincubated for 1 hour with 2.5 μM of compounds targeting Axl. They were then stimulated for 5 min with 1 mM of pervanadate. The evaluation of the inhibition of the phosphorylation of the […] residue of the intracytoplasmic domain of Axl kinase is carried out by immunoblot using the antibody R&D Systems (AF2228) and measuring the intensity of the signals by densitometry (Image J) (P-Axl/Axl ratio). The A549 cells were preincubated for 1 hour with 2.5 μM of compound 1, 2, or 3. They were then stimulated for 5 min with 1 mM pervanadate, a compound known to activate the kinase Axl by phosphorylation. The inhibition of the phosphorylation of the […] residue of the intracytoplasmic domain of Axl is visualized by immunoblot using the antibody R&D Systems (AF2228).

Row | Compound | infection of the VeroE6 cells by the SARS-COV-2 virus [1] | concentration at which infection of the Hela cells by the strain ZIKV BeH-8 is prevented [2] | Percentage inhibition SYK [3] | Percentage inhibition JAK3 [4] | Percentage inhibition KDR (VEGFR2) [5] | Percentage inhibition CSK [6] | Percentage inhibition MERTK (cMER) [7] | Percentage inhibition RPS6KA1 (RSX1) [8] | Percentage inhibition JAK2 [9] | IC50 [10] | active on infectious model SARS-COV-2 [11] | activation (phosphorylation) of the Y779 residue of AxL compared to the control (DMSO) [12] | IC50 [1] | IC50 [2] | active on infectious model ZIKV [2]
1 | CN1CCN(Cc2cccc(-c3cnc4[nH]cc(-c5cc(NC(=O)Nc6ccccc6)ccc5F)c4c3)c2)CC1 [Compound 3] | prevent the infection | greater than or equal to 150 nM | 8% | 13% | 55% | 8% | 75% | 41% | 13% | 48.2 nM | ACTIVE | much lower or even zero activation |  |  | 
2 | CN1CCN(Cc2cccc(-c3cnc4[nH]cc(-c5cc(CNCc6ccccc6)ccc5F)c4c3)c2)CC1 [Compound 2] | prevent the infection | greater than or equal to 150 nM | 11% | 18% | 68% | 12% | 96% | 16% | 23% | 2.33 nM | ACTIVE | much lower or even zero activation | 289 nM | 25 nM | ACTIVE
3 | CN1CCN(Cc2cccc(-c3cnc4[nH]cc(-c5cc(CNCCc6ccc(O)cc6)ccc5F)c4c3)c2)CC1 [Compound 1] | prevent the infection | greater than or equal to 150 nM | 4% | 42% | 85% | 7% | 98% | 38% | 19% | 2.5 nM | ACTIVE | much lower or even zero activation | 77 nM | 198 nM | ACTIVE
